We go through 2 compounds from patent US12384775B2, “Pyrimid-2-yl-pyrazole compounds as IRAK inhibitors” (Rigel Pharmaceuticals, Inc., priority 2022, dated 2025).

For series [1], the target named is T1, IRAK4 (Homo sapiens, UniProt Q9NWZ3).
T1 construct: purchased Signalchem I12-10G-20
T1 sequence (Q9NWZ3 1-460): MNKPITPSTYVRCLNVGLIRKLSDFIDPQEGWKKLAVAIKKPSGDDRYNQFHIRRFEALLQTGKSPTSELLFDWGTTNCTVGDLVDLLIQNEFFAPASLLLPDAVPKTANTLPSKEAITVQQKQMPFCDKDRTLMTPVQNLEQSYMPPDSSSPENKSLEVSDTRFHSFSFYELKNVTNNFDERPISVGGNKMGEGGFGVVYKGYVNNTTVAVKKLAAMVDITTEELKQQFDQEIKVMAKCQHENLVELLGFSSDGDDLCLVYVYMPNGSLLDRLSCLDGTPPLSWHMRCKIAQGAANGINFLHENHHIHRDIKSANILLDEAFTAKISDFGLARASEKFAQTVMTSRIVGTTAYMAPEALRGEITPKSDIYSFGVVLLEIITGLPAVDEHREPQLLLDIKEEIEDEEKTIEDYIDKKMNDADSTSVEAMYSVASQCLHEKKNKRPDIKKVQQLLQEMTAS
As to the kind of experiment: IRAK4 ADP-Glo kinase assay. The following applies: for IC50: n >= 3. It counts as biochemical. How it is done: The ADP-Glo™ reagents were thawed at ambient temperature. The Kinase Detection Reagent was prepared by mixing kinase detection buffer with the lyophilized kinase detection substrate, and set aside.
A stock volume of 5× Reaction Kinase Buffer was made with a final concentration of 100 mM MgCl2, 200 mM Tris-HCl, and 0.5 mg/ml of BSA, in distilled H2O with a final pH7.4. A 2× working stock volume of Reaction Kinase Buffer was made containing a final concentration of 100 μM DTT.
The components of IRAK4 Enzyme were thawed on ice. Diluted IRAK4 in 1× Kinase Reaction Buffer (diluted from 2× buffer) was prepared at […]. A 250 μM working stock ATP Assay Solution was prepared in 1× Kinase Reaction Buffer (diluted from 2× buffer).
The compound was diluted in DMSO from 250 µM in 4-fold series dilutions for 8 points. Then diluted 1:5 in 2× Reaction Buffer in a 96 well plate. 1.0 μl was transferred to a 384 well plate in duplicate. […] 1 μl of 1 mg/ml stock solution of MBP substrate was added NOTE: MBP can be combined with ATP mix with equal volume and then added at 2 μl/well. Final reaction volume was 5 μl. The plate was centrifuged and the reaction mixture was incubated at room temperature for 60 minutes or at 30° C. for 30 minutes.
The reaction was terminated and the remaining ATP was depleted by adding 5 μl of ADP-Glo™ Reagent. The 384-well plate was centrifuged and then the reaction mixture was incubated for another 40 minutes at ambient temperature.
10 μl of the Kinase Detection Reagent was added. The plate was centrifuged and then the reaction mixture was incubated for another 30 minutes at ambient temperature.
The 384-well reaction plate was read using the WALLAC plate reader (Luminescence 0.1s).
(In general: ADP-Glo turns the ADP formed in a reaction into a luminescent signal.)

Series [2] deals with T1, IRAK4. As to the kind of experiment: IRAK4 Z'-LYTE assay. It counts as biochemical. The settings on record: for IC50: n = 1. The protocol: • Bar-coded Corning, low volume NBS, black 384-well plate (Corning Cat. #4514) • Test Compounds: The Test Compounds are screened in 1% DMSO (final) in the well. For 10 point titrations, 3-fold serial dilutions are conducted from 10 µM. • Peptide/Kinase Mixture: The 2×IRAK4/Ser/Thr 07 mixture is prepared in 50 mM HEPES pH 7.5, 0.01% BRIJ-35, 10 mM MnCl2, 1 mM EGTA, 2 mM DTT, 0.02% NaN3. • ATP Solution: All ATP Solutions are diluted to a 4× working concentration in Kinase Buffer (50 mM HEPES pH 7.5, 0.01% BRIJ-35, 10 mM MgCl2, 1 mM EGTA). ATP Km apparent is previously determined using a Z-LYTE® assay. • Development Reagent Solution: The Development Reagent is diluted 1:45000 in Development Buffer. General Method • 1. 100 nL—100× Test Compound in 100% DMSO • 2. […]—Kinase buffer • 3. 5 μL—2× Peptide/Kinase Mixture • 4. 2.5 μL—4×ATP Solution
The final 10 μL Kinase Reaction consists of 3.45-63.6 ng IRAK4 and 2 μM Ser/Thr 07 in 50 mM HEPES pH 7.5, 0.01% BRIJ-35, 5 mM MgCl2, 5 mM MnCl2, 1 mM EGTA, 1 mM DTT, 0.01% NaN3. • 5. 30-second plate shake • 6. 60-minute Kinase Reaction incubation at room temperature • 7. 5 μL—Development Reagent Solution • 8. 30-second plate shake • 9. 60-minute Development Reaction incubation at room temperature • 10. Read on fluorescence plate reader and analyze the data

The nature of series [3]: Plasma protein binding, equilibrium dialysis (RED), human. It counts as in vitro ADME. The settings on record: for recovery at 5 μM / fraction unbound at 5 μM: Human plasma, drug 5 μM; for fraction unbound at 5 μM: read-out: % bound (converted); for Free Fraction in Whole Blood Assay, Human: plasma free fraction. How it is done:
Brain and plasma drug binding were performed by equilibrium dialysis using the Rapid Equilibrium Dialysis (RED) device. Briefly, 300 μL of plasma or brain homogenate (1 brain/3 buffer) containing drug (5 μM) was equilibrated (4-18 h) against 500 μL of buffered saline. After incubation, the concentration of drug in plasma/brain homogenate and buffer was determined by LC-MS/MS.
Recovery is calculated by determining the total amount of drug in 50 μL of plasma and 50 μL buffer after the incubation and comparing that value to the amount of drug in 50 μL of a plasma sample that was not incubated. For the protein binding assay, drug was added to the plasma and this plasma was added to one side of the dialysis device while buffer was added to the other. After filing the plasma chamber of the equilibrium device, a 50 μL aliquot of plasma was mixed with 50 μL of buffer and then quenched with stop reagent. Drug recovery=(Drug buffer+Drug plasma)/(drug in initial plasma)

Series [4] concerns LPS Induced TNF-α in Human Blood. As to the kind of experiment: LPS induced TNF-α in human whole blood. It counts as cell-based. The following applies: LPS 0.5 ng/ml overnight, read-out: Human Whole Blood Assays (IC5050), TNFα LPS. The protocol: (§1) To assess the effect of whole blood on the potency of compound I-1 and Comparison-1, the compounds were evaluated for their inhibitory potential on TLR dependent cytokine release in human blood. Freshly drawn peripheral blood from healthy volunteers was incubated with test compound and stimulated overnight with LPS or Gardiquimod. The serum was isolated after centrifugation and TNF-α and IL-6 were measured by ELISA.
Whole blood of healthy volunteers was collected in Vacutainer containing Sodium Heparin and plate 40 μL of blood to each well. Compound was serially diluted in DMSO from 2 mM in 3-fold dilutions, and then diluted 1:100 in media with 10% FBS. 50 μL of 2× compound was added per well in duplicate to each well and incubate for one hour. 10 μL LPS was added to each well at a final concentration of 0.5 ng/ml and allow cells to incubate overnight.
100 μL of PBS was added to each well and centrifuged for 10 minutes at 1000 RPM. 25 μL of supernatant were taken, and TNF-α was measured on Luminex Flexmap 3d.

For series [5], the system named is TLR dependent cytokine release in human blood. As to the kind of experiment: Human whole blood assays, average of IL-6 Gard and TNFα LPS. It counts as cell-based. The following applies: read-out: Human Whole Blood Assays (IC5050), Average. The protocol:
as §1

The structures appear in SMILES notation.

By EC50 is commonly meant the midpoint of the concentration-response curve. Turning to `CCO[C@H]1CC[C@H](n2cc(NC(=O)c3csc(-c4cn[nH]c4)n3)c(-c3ncccn3)n2)CC1` [Compound I-1, N-(1-((1r,4r)-4-ethoxycyclohexyl)-3-(pyrimidin-2-yl)-1H-pyrazol-4-yl)-2-(1H-pyrazol-4-yl)thiazole-4-carboxamide], the IC50 on IRAK4 [1] stood at 7 ± 4 nM; against IRAK4 [2], 6 nM; in series [4], 224 nM; in series [5], 174 nM. Further, the EC50 at IRAK4 [1] (read-out: IRAK4 ADP-Glo Kinase, 8 pt EC50) turned out to be 7 nM; at IRAK4 [2], 6 nM. Moreover, in series [3], the recovery at 5 μM stood at 77.1%. The fraction unbound at 5 μM in series [3] was 0.03. For the same compound, in series [3], the “Free Fraction in Whole Blood Assay, Human” value was determined as 3.0%. Moreover, the “times more free than Comparison-1 (free drug)” value in series [3] (in rat, dog, monkey and human proteins) is listed as “approximately 6 times”.
As for `CCO[C@H]1CC[C@H](n2cc(NC(=O)c3csc(-c4cn[nH]c4)n3)c(-c3nc(F)ccc3F)n2)CC1` [Comparison-1, reference compound], the IC50 on IRAK4 [1] was 6 ± 6 nM; against IRAK4 [2] it was 15 nM; in series [4], 1400 nM; in series [5], 1400 nM. This compound also registered a recovery at 5 μM in series [3] of 75.5%. Moreover, the fraction unbound at 5 μM in series [3] was 0.004. Moreover, the “Free Fraction in Whole Blood Assay, Human” value in series [3] turned out to be 0.4%.
